Assay [1] concerns the target human PDE4D catalytic domain (UniProt no. Q08499 [S380-L740]) (Homo sapiens (Human), UniProt Q08499). In words: PDE4 assay (TR-FRET, cAMP hydrolysis). Format: biochemical. The note with it: read-out: PDE4 IC50 range. The procedure: The human PDE4D catalytic domain (UniProt no. Q08499 [S380-L740]) was incubated with a mixture of non-labelled cAMP (cyclic adenosine monophosphate) and fluorescein amidite (FAM) conjugated cAMP and titrated test or reference compound.
Following brief incubation the enzymatic reaction was stopped by addition of binding buffer containing nanoparticles with immobilized trivalent metal ions capable of binding 1) AMP phospho groups and 2) terbium (Tb) donor fluorophores. Subsequent excitation of the Tb donor triggered time-resolved FRET to adjacent FAM acceptor molecules resulting in light emission. In the presence of a PDE4 inhibitor, AMP generation was reduced resulting in a lower fluorescence signal. The cAMP phosphodiester is not bound by the detection system.
Results were expressed as IC50 values (nM) calculated from inhibition curves where the TR-FRET signal was normalized to Tb fluorescence intensity and the negative (DMSO vehicle) and positive (10 microM a PDE4 inhibitor reference compound) controls.
(In general: Time-resolved FRET reads energy transfer from a long-lived donor to a nearby acceptor.)

The test system of assay [2] is Human peripheral blood mononuclear cells (PBMC). Description: TNF-α release from LPS-stimulated PBMC. The assay is classed as cell-based. The following applies: Lipopolysaccharide 1 microg/ml, 18 hours, AlphaLISA, read-out: TNF-α IC50 range. The procedure:
Human peripheral blood mononuclear cells (PBMC) were isolated from fresh buffy coats by density centrifugation using lymphoprep tubes (Medinor). Frozen PBMC's were washed in serum free assay buffer (RPMI1640 with 25 mM HEPES, 1% pen/strep, […] L glutamine, 0.5% human serum albumin) and living cells counted. Lipopolysaccharide (1 microg/ml; SIGMA) was added to the cells which were then transferred to 384 well tissue culture plates ([…]) containing titrated test compounds. The cells were incubated for 18 hours at 37° C. in serum free assay buffer and the level of TNFalpha in the supernatant was quantitated by AlphaLISA (PerkinElmer) by measuring fluorescence intensity at 615 nm.
Results were expressed as IC50 values calculated from inhibition curves using as controls the secretion in LPS stimulated wells and the secretion in cells incubated with 10 microM of a PDE4 inhibitor reference compound.

For orientation: IC50 means the point on the concentration scale where inhibition reaches its midpoint.

human PDE4D catalytic domain, sequence (Q08499 380-740): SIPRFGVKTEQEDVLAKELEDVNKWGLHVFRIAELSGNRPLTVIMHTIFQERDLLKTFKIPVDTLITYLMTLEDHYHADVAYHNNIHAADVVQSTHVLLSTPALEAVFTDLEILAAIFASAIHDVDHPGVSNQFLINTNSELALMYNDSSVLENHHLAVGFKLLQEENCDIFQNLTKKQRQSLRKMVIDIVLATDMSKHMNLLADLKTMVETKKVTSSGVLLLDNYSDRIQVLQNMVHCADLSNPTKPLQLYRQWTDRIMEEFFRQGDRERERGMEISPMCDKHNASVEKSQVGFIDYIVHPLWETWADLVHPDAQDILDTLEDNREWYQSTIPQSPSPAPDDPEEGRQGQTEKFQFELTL

For the molecule `O=C(OC1CN(c2nc3c(c(NC4CC5(COC5)C4)n2)[S+]([O-])CC3)C1)c1cnsc1` (racemic) [Example 65, [1-[4-(6-oxaspiro[3.3]-heptan-2-ylamino)-5-oxido-6,7-dihydrothieno-[3,2-d]pyrimidin-5-ium-2-yl]azetidin-3-yl] isothia-zole-4-carboxylate], the IC50 in assay [1] and in assay [2] was less than 0.1 µM each time.
Consider `O=C(OC1CN(c2nc3c(c(NC4CC5(COC5)C4)n2)[S@@+]([O-])CC3)C1)c1cscn1` (single isomer, unassigned) [Example 70], for which the IC50 in assay [1] and in assay [2] was less than 0.1 µM in each case.
Turning to `O=C(OC1CN(c2nc3c(c(NC4CC5(COC5)C4)n2)[S@+]([O-])CC3)C1)c1cscn1` (single isomer, unassigned) [Example 71], the IC50 in assay [1] was 0.1 to 0.5 µM; in assay [2], more than 0.5 µM.
Consider `CN(c1nc(N2CC(OC(=O)c3cnsc3)C2)nc2c1[S+]([O-])CC2)C1CCOCC1` (stereo in doubt) [Example 4, [1-[(5R)-4-[Methyl(tetrahydropyran-4-yl)amino]-5-oxido-6,7-dihydrothieno[3,2-d]pyrimidin-5-ium-2-yl]azetidin-3-yl] isothiazole-4-carboxylate], for which the IC50 in assay [1] and in assay [2] was less than 0.1 µM each time.
Take `CN(c1nc(N2CC(OC(=O)c3cscn3)C2)nc2c1[S+]([O-])CC2)C1CCOCC1` (stereo in doubt) [Example 6, [1-[(5R)-4-[Methyl(tetrahydropyran-4-yl)amino]-5-oxido-6,7-dihydrothieno[3,2-d]pyrimidin-5-ium-2-yl]azetidin-3-yl] thiazole-4-carboxylate]: the IC50 in assay [1] and in assay [2] was less than 0.1 µM in each case.
As for `O=C(OC1CN(c2nc3c(c(NC4CC5(COC5)C4)n2)[S+]([O-])CC3)C1)c1cnsc1` (stereo in doubt) [Example 68, [1-[(5R)-4-(6-oxaspiro-[3.3]heptan-2-ylamino)-5-oxido-6,7-dihydrothieno-[3,2-d]pyrimidin-5-ium-2-yl]azetidin-3-yl] isothia-zole-4-carboxylate], the IC50 in assay [1] and in assay [2] was less than 0.1 µM throughout.
On to `O=C(OC1CN(c2nc3c(c(NC4CC5(COC5)C4)n2)[S+]([O-])CC3)C1)c1cnsc1` (stereo in doubt) [Example 69, [1-[(5S)-4-(6-oxaspiro-[3.3]heptan-2-ylamino)-5-oxido-6,7-dihydrothieno-[3,2-d]pyrimidin-5-ium-2-yl]azetidin-3-yl] isothia-zole-4-carboxylate], for which the IC50 in assay [1] is 0.1 to 0.5 µM; in assay [2], more than 0.5 µM.
Consider `O=C(OC1CN(c2nc3c(c(NC4CCOCC4)n2)[S@@+]([O-])CC3)C1)c1cnsc1` [Example 1, [1-[(5R)-5-Oxido-4-(tetrahydropyran-4-ylamino)-6,7-dihydrothieno[3,2-d]pyrimidin-5-ium-2-yl]azetidin-3-yl] isothiazole-4-carboxylate], for which the IC50 in assay [1] and in assay [2] was less than 0.1 µM in each case.
As to `O=C(OC1CN(c2nc3c(c(NC4CCOCC4)n2)[S@@+]([O-])CC3)C1)c1cscn1` [Example 2, [1-[(5R)-5-Oxido-4-(tetrahydropyran-4-ylamino)-6,7-dihydrothieno[3,2-d]pyrimidin-5-ium-2-yl]azetidin-3-yl] thiazole-4-carboxylate], the IC50 in assay [1] and in assay [2] was less than 0.1 µM each time.
For `CN(c1nc(N2CC(OC(=O)c3cnsc3)C2)nc2c1[S+]([O-])CC2)C1CCOCC1` (stereo not shown) [Example 3, [1-[4-[Methyl(tetrahydropyran-4-yl)amino]-5-oxido-6,7-dihydrothieno[3,2-d]pyrimidin-5-ium-2-yl]azetidin-3-yl] isothiazole-4-carboxylate], the IC50 in assay [1] and in assay [2] was less than 0.1 µM in each case.
As to `CN(c1nc(N2CC(OC(=O)c3cscn3)C2)nc2c1[S+]([O-])CC2)C1CCOCC1` (stereo not shown) [Example 5, [1-[4-[Methyl(tetrahydropyran-4-yl)amino]-5-oxido-6,7-dihydrothieno[3,2-d]pyrimidin-5-ium-2-yl]azetidin-3-yl] thiazole-4-carboxylate], the half-maximal inhibitory concentration (IC50) in assay [1] and in assay [2] was less than 0.1 µM in each case.

Source of the values: patent publication US11365204B2, “Substituted dihydrothienopyrimidines and their use as phosphodiesterase inhibitors” (UNION therapeutics A/S, priority 2017, dated 2022).
